Test results as given in patent publication US6737383B1, “Herbicidal oxadiazolidines” (priority 1999, dated 2004).

Tests used:
wild mustard = assay: Test E wild mustard; type: in vivo, Sinapis arvensis; conditions: Preemergence
wild oat = assay: Test E wild oat; type: in vivo, Avena fatua; conditions: Postemergence
Description: (§1) Compounds evaluated in this test were formulated in a non-phytotoxic solvent mixture which included a surfactant and applied to plants that were in the 1- to 4-leaf stage (postemergence application). A mixture of sandy loam soil and greenhouse potting mix in a 60:40 ratio was used for the postemergence test.
(§2) Plantings of these crops and weed species were adjusted to produce plants of appropriate size for the postemergence test. All plant species were grown using normal greenhouse practices. Crop and weed species include annual bluegrass (Poa annua), blackgrass (Alopecurus myosuroides), black nightshade (Solanum nigra), chickweed (Stellaria media), common poppy (Papaver rhoeas), deadnettle (Lamium amplexicaule), downy brome (Bromus tectorum), field violet (Viola arvensis), galium (Galium aparine), green foxtail (Setaria viridis), Italian ryegrass (Lolium multiflorum), jointed goatgrass (Aegilops cylindrica), kochia (Kochia scoparia), lambsquarters (Chenopodium album), littleseed canarygrass (Phalaris minor), rape (Brassica napus), redroot pigweed (Amaranthus retroflexus), Russian thistle (Salsola kali), scentless chamomile (Matricaria inodora), spring barley (Hordeum vulgare), sugar beet (Beta vulgaris), sunflower (Helianthus annuus), ivyleaf speedwell (Veronica hederaefolia), spring wheat (Triticum aestivum), winter wheat (Triticum aestivum), wild buckwheat (Polygonum convolvulus), wild mustard (Sinapis arvensis), wild oat (Avena fatua), windgrass (Apera spica-venti) and winter barley (Hordeum vulgare).
(§3) Treated plants and untreated controls were maintained in a greenhouse for approximately 21 to 28 days, after which all treated plants were compared to untreated controls and visually evaluated. […] A dash response (-) means no test result.

cocklebur = assay: Test C postemergence cocklebur; type: in vivo, Xanthium strumarium; conditions: 0 to 100 scale, 0 no effect, 100 complete control
Method in brief: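 Postemergence spray; formulation = non-phytotoxic solvent + surfactant; soil 60:40 sandy loam:greenhouse potting mix; greenhouse, ~14–21 d; visual rating vs untreated, 0–100 (100 = complete control).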

black nightshade = assay: Test E black nightshade; type: in vivo, Solanum nigra; conditions: Postemergence
Description: as §1, §2, §3

kochia = assay: Test E kochia; type: in vivo, Kochia scoparia; conditions: Preemergence
spring wheat = assay: Test E spring wheat; type: in vivo, Triticum aestivum; conditions: Preemergence
sunflower = assay: Test E sunflower; type: in vivo, Helianthus annuus; conditions: Preemergence
rape [1] = assay: Test E rape; type: in vivo, Brassica napus; conditions: Preemergence
annual bluegrass = assay: Test E annual bluegrass; type: in vivo, Poa annua; conditions: Preemergence
rape [2] = assay: Test E rape; type: in vivo, Brassica napus; conditions: Postemergence
Description: […] A mixture of sandy loam soil and greenhouse potting mix in a 60:40 ratio was used for the postemergence test.
as §2, §3

jointed goatgrass = assay: Test E jointed goatgrass; type: in vivo, Aegilops cylindrica; conditions: Postemergence
Description: as §1, §2, §3

wild buckwheat = assay: Test E wild buckwheat; type: in vivo, Polygonum convolvulus; conditions: Preemergence
field violet = assay: Test E field violet; type: in vivo, Viola arvensis; conditions: Preemergence
spring barley = assay: Test E spring barley; type: in vivo, Hordeum vulgare; conditions: Preemergence
barnyardgrass = assay: Test A barnyardgrass; type: in vivo, Echinochloa crus-galli; conditions: 0 to 10 scale where 0 is no effect and 10 is complete control
Description: Seeds of barnyardgrass (Echinochloa crus-galli), crabgrass (Digitaria spp.), morningglory (Ipomoea spp.), and velvetleaf (Abutilon theophrasti) were planted into a sandy loam soil and treated preemergence by soil drench with test chemicals formulated in a non-phytotoxic solvent mixture which includes a surfactant At the same time, these crop and weed species were also treated postemergence sprayed to runoff, with test chemicals formulated in the same manner.
Plants ranged in height from two to eighteen cm and were in the one to two leaf stage for the postemergence treatment. Treated plants and untreated controls were maintained in a greenhouse for approximately eleven days, after which all treated plants were compared to untreated controls and visually evaluated for injury. Plant response ratings, summarized in Table A, are based on a 0 to 10 scale where 0 is no effect and 10 is complete control.

crabgrass = assay: Test A crabgrass; type: in vivo, Digitaria spp.; conditions: 0 to 10 scale where 0 is no effect and 10 is complete control
Method in brief: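 Visual injury score, 0 (no effect) to 10 (complete control), vs untreated controls at ~11 d in greenhouse. Pre: soil drench on sandy loam. Post: spray to runoff, 1–2 leaf stage.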

[3] = Rate 62 g/ha, 0 to 100 scale, 0 no effect, 100 complete control
[4] = Rate 125 g/ha, 0 to 100 scale (0 no effect, 100 complete control)
[5] = Rate 250 g/ha, 0 to 100 scale (0 no effect, 100 complete control)
[6] = Rate 500 g/ha, 0 to 100 scale where 0 is no effect and 100 is complete control
[7] = Rate 500 g/ha, 0 to 100 scale, 0 no effect, 100 complete control

CCn1c(=O)on(C(=O)N(c2ccc(F)cc2)C(C)C)c1=O [Compound 107]
Plant response rating, Wild mustard (wild mustard; [3]): 100
Plant response rating, Wild mustard (wild mustard; [4]): 85
Plant response rating, Wild mustard (wild mustard; Rate 250 g/ha, 0 to 100 scale): 100
Plant response rating, Wild oat (wild oat; Rate 62 g/ha, 0 to 100 scale): 5
Plant response rating, Wild oat (wild oat; Rate 125 g/ha, 0 to 100 scale): 5
Plant response rating, Wild oat (wild oat; [5]): 0
Plant response rating, Cocklebur (cocklebur; Rate 140 g/ha): 0
Plant response rating, Cocklebur (cocklebur; Rate 280 g/ha): 50
Plant response rating, Blk nightshade (black nightshade; Rate 62 g/ha, 0 to 100 scale): 10
Plant response rating, Blk nightshade (black nightshade; Rate 125 g/ha, 0 to 100 scale): 30
Plant response rating, Blk nightshade (black nightshade; [5]): 60
Plant response rating, Kochia (kochia; [3]): 50
Plant response rating, Kochia (kochia; [4]): 60
Plant response rating, Kochia (kochia; Rate 250 g/ha, 0 to 100 scale): 80
Plant response rating, Spring Wheat (spring wheat; [3]): 60
Plant response rating, Spring Wheat (spring wheat; [4]): 75
Plant response rating, Spring Wheat (spring wheat; Rate 250 g/ha, 0 to 100 scale): 85
Plant response rating, Sunflower (sunflower; [3]): 20
Plant response rating, Sunflower (sunflower; [4]): 30
Plant response rating, Sunflower (sunflower; Rate 250 g/ha, 0 to 100 scale): 40
Plant response rating, Rape (rape [1]; [3]): 60
Plant response rating, Rape (rape [1]; [4]): 70
Plant response rating, Rape (rape [1]; Rate 250 g/ha, 0 to 100 scale): 100
Plant response rating, Annual bluegras (annual bluegrass; [3]): 70
Plant response rating, Annual bluegras (annual bluegrass; [4]): 80
Plant response rating, Annual bluegras (annual bluegrass; Rate 250 g/ha, 0 to 100 scale): 85
Plant response rating, Rape (rape [2]; Rate 62 g/ha, 0 to 100 scale): 20
Plant response rating, Rape (rape [2]; Rate 125 g/ha, 0 to 100 scale): 30
Plant response rating, Rape (rape [2]; [5]): 50
Plant response rating, Jointed goatgra (jointed goatgrass; Rate 62 g/ha, 0 to 100 scale): 0
Plant response rating, Jointed goatgra (jointed goatgrass; Rate 125 g/ha, 0 to 100 scale): 10
Plant response rating, Jointed goatgra (jointed goatgrass; [5]): 10
Plant response rating, Wild buckwheat (wild buckwheat; [3]): 60
Plant response rating, Wild buckwheat (wild buckwheat; [4]): 90
Plant response rating, Wild buckwheat (wild buckwheat; Rate 250 g/ha, 0 to 100 scale): 95
Plant response rating, Field violet (field violet; [3]): 70
Plant response rating, Field violet (field violet; [4]): 30
Plant response rating, Field violet (field violet; Rate 250 g/ha, 0 to 100 scale): 20
Plant response rating, Spring Barley (spring barley; [3]): 30
Plant response rating, Spring Barley (spring barley; [4]): 70
Plant response rating, Spring Barley (spring barley; Rate 250 g/ha, 0 to 100 scale): 70

CCn1c(=O)on(C(=O)N(c2ccc(F)cc2F)C(C)C)c1=O [Compound 116]
Plant response rating, Wild mustard (wild mustard; [4]): 75
Plant response rating, Wild mustard (wild mustard; Rate 250 g/ha, 0 to 100 scale): 85
Plant response rating, Wild mustard (wild mustard; [6]): 65
Plant response rating, Wild oat (wild oat; Rate 62 g/ha, 0 to 100 scale): 20
Plant response rating, Wild oat (wild oat; Rate 125 g/ha, 0 to 100 scale): 0
Plant response rating, Wild oat (wild oat; [5]): 30
Plant response rating, Wild oat (wild oat; [7]): 70
Plant response rating, Cocklebur (cocklebur; Rate 140 g/ha): 0
Plant response rating, Cocklebur (cocklebur; Rate 560 g/ha): 0
Plant response rating, Cocklebur (cocklebur; Rate 1120 g/ha): 50
Plant response rating, Blk nightshade (black nightshade; Rate 62 g/ha, 0 to 100 scale): 10
Plant response rating, Blk nightshade (black nightshade; Rate 125 g/ha, 0 to 100 scale): 50
Plant response rating, Blk nightshade (black nightshade; [5]): 50
Plant response rating, Blk nightshade (black nightshade; [7]): 60
Plant response rating, Kochia (kochia; [4]): 0
Plant response rating, Kochia (kochia; Rate 250 g/ha, 0 to 100 scale): 85
Plant response rating, Kochia (kochia; [6]): 70
Plant response rating, Spring Wheat (spring wheat; [4]): 15
Plant response rating, Spring Wheat (spring wheat; Rate 250 g/ha, 0 to 100 scale): 80
Plant response rating, Spring Wheat (spring wheat; [6]): 100
Plant response rating, Sunflower (sunflower; [4]): 15
Plant response rating, Sunflower (sunflower; Rate 250 g/ha, 0 to 100 scale): 40
Plant response rating, Sunflower (sunflower; [6]): 70
Plant response rating, Rape (rape [1]; [4]): 60
Plant response rating, Rape (rape [1]; Rate 250 g/ha, 0 to 100 scale): 100
Plant response rating, Rape (rape [1]; [6]): 100
Plant response rating, Annual bluegras (annual bluegrass; [4]): 60
Plant response rating, Annual bluegras (annual bluegrass; Rate 250 g/ha, 0 to 100 scale): 85
Plant response rating, Annual bluegras (annual bluegrass; [6]): 100
Plant response rating, Rape (rape [2]; Rate 62 g/ha, 0 to 100 scale): 10
Plant response rating, Rape (rape [2]; Rate 125 g/ha, 0 to 100 scale): 0
Plant response rating, Rape (rape [2]; [5]): 0
Plant response rating, Rape (rape [2]; [7]): 30
Plant response rating, Jointed goatgra (jointed goatgrass; Rate 62 g/ha, 0 to 100 scale): 30
Plant response rating, Jointed goatgra (jointed goatgrass; Rate 125 g/ha, 0 to 100 scale): 20
Plant response rating, Jointed goatgra (jointed goatgrass; [5]): 40
Plant response rating, Jointed goatgra (jointed goatgrass; [7]): 50
Plant response rating, Wild buckwheat (wild buckwheat; [4]): 40
Plant response rating, Wild buckwheat (wild buckwheat; Rate 250 g/ha, 0 to 100 scale): 60
Plant response rating, Wild buckwheat (wild buckwheat; [6]): 95
Plant response rating, Field violet (field violet; [4]): 50
Plant response rating, Field violet (field violet; Rate 250 g/ha, 0 to 100 scale): 40
Plant response rating, Field violet (field violet; [6]): 90
Plant response rating, Spring Barley (spring barley; [4]): 40
Plant response rating, Spring Barley (spring barley; Rate 250 g/ha, 0 to 100 scale): 75
Plant response rating, Spring Barley (spring barley; [6]): 100

CCOC(=O)Cn1c(=O)on(C(=O)N(c2ccc(F)cc2)C(C)C)c1=O [Compound 128]
Plant response rating, Barnyardgrass (barnyardgrass; Postemergence, Rate 1000 g/ha): 0
Plant response rating, Barnyardgrass (barnyardgrass; Pre-emergence, Rate 2000 g/ha): 0
Plant response rating, Crabgrass (crabgrass; Postemergence, Rate 1000 g/ha): 0
Plant response rating, Crabgrass (crabgrass; Pre-emergence, Rate 2000 g/ha): 0

Cc1ccccc1Cn1c(=O)on(C(=O)N(c2ccc(Cl)cc2)C(C)C)c1=O [Compound 136]
Plant response rating, Barnyardgrass (barnyardgrass; Postemergence, Rate 1000 g/ha): 4
Plant response rating, Barnyardgrass (barnyardgrass; Pre-emergence, Rate 2000 g/ha): 9
Plant response rating, Crabgrass (crabgrass; Postemergence, Rate 1000 g/ha): 6
Plant response rating, Crabgrass (crabgrass; Pre-emergence, Rate 2000 g/ha): 10
